Earlier results on 1 molecule are cited in patent US20190231691A1, “Biopharma Application Of Micell Technology” (Micell Technologies, Inc., priority 2015, published 2019).

The conditions of this data set: in vivo.

Consider `CO[C@H]1C[C@@H]2CC[C@@H](C)[C@@](O)(O2)C(=O)C(=O)N2CCCC[C@H]2C(=O)O[C@H]([C@H](C)C[C@@H]2CC[C@@H](O)[C@H](OC)C2)CC(=O)[C@H](C)/C=C(\C)[C@@H](O)[C@@H](OC)C(=O)[C@H](C)C[C@H](C)/C=C/C=C/C=C/1C` [rapamycin], for which the bioavailability entry is “less than 14%”.
